Assay [1] concerns the target β-catenin:TCF4 interaction (Homo sapiens, UniProt P35222). Briefly: biochemical. Here is the method:
(§1) We next characterized the dose response curves for compound 13 in the Wnt and AR luciferase reporters. The linear version of 13 (linear 13: NH2-|N-mpp, N-dmp, N-ipp, N-Smpe, N-Smpe, D-Ala|-OH) was used as a control compound. […] To test direct binding, we pre-formed dynamic light scattering (DLS) with β-catenin in the presence of vehicle, compound 13, and α-cyclodextrin. […] HEK293 cells were transiently transfected with a plasmid expressing full length, myc-tagged TCF4. After 48 h treatment with either vehicle (DMSO) or 10 µM 13, cells were lysed and myc-TCF4 protein was immunoprecipitated.

Assay [2] addresses T1, β-catenin (Homo sapiens, UniProt P35222).
T1 construct: His6-β-catenin armadillo domain, AA134-668; made in house; host or cells: E. coli BL21 DL3 (NEB)
T1 sequence (P35222 134-668): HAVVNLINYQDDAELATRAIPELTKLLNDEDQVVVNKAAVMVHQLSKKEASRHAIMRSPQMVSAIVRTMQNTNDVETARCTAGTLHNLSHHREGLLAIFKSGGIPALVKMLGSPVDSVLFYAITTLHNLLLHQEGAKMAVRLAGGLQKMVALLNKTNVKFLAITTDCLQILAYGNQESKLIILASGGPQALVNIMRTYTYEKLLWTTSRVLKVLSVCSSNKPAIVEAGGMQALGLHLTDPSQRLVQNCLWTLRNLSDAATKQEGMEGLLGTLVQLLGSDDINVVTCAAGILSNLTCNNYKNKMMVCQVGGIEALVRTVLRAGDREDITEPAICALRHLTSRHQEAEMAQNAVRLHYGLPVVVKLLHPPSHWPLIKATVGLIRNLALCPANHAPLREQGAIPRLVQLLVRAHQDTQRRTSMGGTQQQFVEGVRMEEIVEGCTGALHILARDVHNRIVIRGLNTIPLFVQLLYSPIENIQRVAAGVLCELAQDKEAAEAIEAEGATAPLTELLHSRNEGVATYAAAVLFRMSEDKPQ
Briefly: Dynamic light scattering of β-catenin. The format is binding. As to conditions: 10 µM compound vs 1% DMSO vehicle. On the procedure: as §1

In assay [3] the test system is LNCaP-abl cells. As to conditions: read-out: IC50 proliferation, LNCaP-abl; 5 days of treatment. On the procedure: (§2) To test the effect of 13 in a model of prostate cancer, we used the LNCaP-abl and LNCaP-95 cell lines. These cell lines were derived from androgen-sensitive LNCaP cells, and passaged in androgen-deprived media to mimic the development of castration resistance in patient tumors[54],[55]. We first isolated mRNA from LNCaP-abl and LNCaP-95 cells treated with vehicle, 10 µM 13 and linear 13 for 24 h to check the expression of endogenous Wnt and AR target genes (Fig. 4a). […] AR-V7 is particularly challenging to target as most AR antagonists target the ligand binding domain. […] To check if the changes in Wnt and AR target gene expression translated into effects on growth, the viability of LNCaP-abl and LNCaP-95 cells was determined after 5 days of treatment (Fig. 4b).
(§3) Data are presented as mean and SD (n = 3) of three independent experiments (a) or representative of three independent experiments (b, c).
(§4) LNCaP-abl and LNCaP-95 cells were cultured in indicator free RPMI 1640 media (Life) supplemented with 10% charcoal stripped FBS, 1% pennicillin/streptomycin, and 1% L-Glutamine. […] Both were measured using the ONE-Glo detection kit (Promega) and data is standardized to CellTiter-Fluor (Promega) viability readings to account for potential variations in well to well cell number. […] Total protein concentration in cell lysates were determined using Pierce Rapid Gold BCA Protein Assay Kit (Thermo). […]

Assay [4] relates to LNCaP-95 cells. As to conditions: read-out: IC50 proliferation, LNCaP-95; 5 days of treatment. Here is the method:
as §2, §3, §4

Each structure is given as a SMILES string. Numbered stars: 1 amine (or outer) side, 2 acyl side, 3 side chain; on linkers, the order of the positions; unused ones are H or OH. Square brackets hold non-standard residues; d marks the D form. Peptide text beside a SMILES is read from it. N(2-(2-PhOPh)Et)Gly = O=C(O)CNCCc1ccccc1Oc1ccccc1; Gly(N-3,5-(OMe)2-Ph) = COc1cc(NCC(=O)O)cc(OC)c1; X1 = COc1ccc([C@H](C)N(CC(=O)[*:2])[*:1])cc1; N((CH2)3OiPr)Gly = CC(C)OCCCNCC(=O)O

From article PMC6199279, “Design of Peptoid-peptide Macrocycles to Inhibit the β-catenin TCF Interaction in Prostate Cancer” (Nature Communications, 2018) come the findings set out here.

As for `COc1ccc([C@H](C)N2CC(=O)N[C@H](C)C(=O)N(CCc3ccccc3Oc3ccccc3)CC(=O)N(c3cc(OC)cc(OC)c3)CC(=O)N(CCCOC(C)C)CC(=O)N([C@@H](C)c3ccc(OC)cc3)CC2=O)cc1` [Compound 13] (cyclo([dA][N(2-(2-PhOPh)Et)Gly][Gly(N-3,5-(OMe)2-Ph)][N((CH2)3OiPr)Gly][X1][X1])), the IC50 worked out at 5440 nM in assay [1], 195 nM in assay [3] and 782 nM in assay [4]. Moreover, the “Shift in measured hydrodynamic radius of β-catenin (DLS)” value in assay [2] is given as “significant shift”.
